Key:
wild oat [1] = test: Test Example 5: herbicidal effect by foliage application, plastic box (Table 20, symbol I); format: in vivo, wild oat (Avena fatua); conditions: amount of applied herbicide 320 g/ha; foliage application after 14-day growth; evaluated three weeks after application
Summary of the method: (§1)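 Sow seeds spot-wise in sterilized diluvial soil; cover with ~1.5 cm soil. Grow 14 days in greenhouse, 25° C. to 30° C. Spray foliage with emulsion diluted to predetermined amount. Rate effect after 3 weeks.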

lambsquarters [2] = test: Test Example 5: herbicidal effect by foliage application, plastic box (Table 20, symbol O); format: in vivo, lambsquarters (Chenopodium album); conditions: amount of applied herbicide 320 g/ha; foliage application after 14-day growth; evaluated three weeks after application
Summary of the method: as §1

lambsquarters [3] = test: Test Example 4: herbicidal effect by soil treatment (Table 19, symbol O); format: in vivo, lambsquarters (Chenopodium album); conditions: amount of applied herbicide 320 g/ha
Summary of the method: (§2)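 Applied as a water-diluted emulsion, the compound was sprayed onto soil covering newly sown seeds. Evaluation came three weeks after application, in a greenhouse held at 25° C. to 30° C.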

Japanese bulrush = test: Test Example 1: herbicidal activity, application before weed generation under submerged conditions (Table 16, symbol B); format: in vivo, Japanese bulrush (Schoenoplectus juncoides); conditions: amount of applied herbicide 320 g/ha
Summary of the method: (§3)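 Emulsion formulation, water-diluted to set dose, was put onto the flooded surface (4 cm depth, alluvial soil) the same day weeds were sown and 2.5-leaf rice transplanted. After 3 weeks at 25-30 °C under glass, each species was rated 0 (≤5% kill) to 5 (≥90% kill).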

rice flat sedge = test: Test Example 3: herbicidal effect by foliage application, Wagner pot (Table 18, symbol E); format: in vivo, rice flat sedge (Cyperus iria); conditions: 320 g/ha
Summary of the method: (§4)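 Plants were sown in alluvial soil held under 0.1–0.5 cm standing water and grown 14 days in a greenhouse at 25–30 °C. An emulsifiable formulation, water-diluted to the set dose, was then sprayed onto the foliage, and effects were scored three weeks later using previously defined criteria.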

barnyard grass [4] = test: Test Example 5: herbicidal effect by foliage application, plastic box (Table 20, symbol H); format: in vivo, barnyard grass (Echinochloa crus-galli); conditions: amount of applied herbicide 320 g/ha; foliage application after 14-day growth; evaluated three weeks after application
Summary of the method: as §1

persian speedwell [5] = test: Test Example 4: herbicidal effect by soil treatment (Table 19, symbol R); format: in vivo, Persian speedwell (Veronica persica); conditions: amount of applied herbicide 320 g/ha
Summary of the method: as §2

Italian ryegrass [6] = test: Test Example 4: herbicidal effect by soil treatment (Table 19, symbol K); format: in vivo, Italian ryegrass (Lolium multiflorum); conditions: amount of applied herbicide 320 g/ha
Summary of the method: as §2

southern crabgrass [7] = test: Test Example 4: herbicidal effect by soil treatment (Table 19, symbol F); format: in vivo, southern crabgrass (Digitaria ciliaris); conditions: amount of applied herbicide 320 g/ha
Summary of the method: as §2

persian speedwell [8] = test: Test Example 5: herbicidal effect by foliage application, plastic box (Table 20, symbol R); format: in vivo, Persian speedwell (Veronica persica); conditions: amount of applied herbicide 320 g/ha; foliage application after 14-day growth; evaluated three weeks after application
Summary of the method: as §1

barnyard grass [9] = test: Test Example 3: herbicidal effect by foliage application, Wagner pot (Table 18, symbol H); format: in vivo, barnyard grass (Echinochloa crus-galli); conditions: 320 g/ha
Summary of the method: as §4

chickweed [10] = test: Test Example 5: herbicidal effect by foliage application, plastic box (Table 20, symbol P); format: in vivo, common chickweed (Stellaria media); conditions: amount of applied herbicide 320 g/ha; foliage application after 14-day growth; evaluated three weeks after application
Summary of the method: as §1

velvetleaf [11] = test: Test Example 5: herbicidal effect by foliage application, plastic box (Table 20, symbol M); format: in vivo, velvetleaf (Abutilon theophrasti); conditions: amount of applied herbicide 320 g/ha; foliage application after 14-day growth; evaluated three weeks after application
Summary of the method: as §1

Italian ryegrass [12] = test: Test Example 5: herbicidal effect by foliage application, plastic box (Table 20, symbol K); format: in vivo, Italian ryegrass (Lolium multiflorum); conditions: amount of applied herbicide 320 g/ha; foliage application after 14-day growth; evaluated three weeks after application
Summary of the method: as §1

blackgrass [13] = test: Test Example 4: herbicidal effect by soil treatment (Table 19, symbol J); format: in vivo, blackgrass (Alopecurus myosuroides); conditions: amount of applied herbicide 320 g/ha
Summary of the method: as §2

windgrass [14] = test: Test Example 4: herbicidal effect by soil treatment (Table 19, symbol L); format: in vivo, windgrass (Apera spica-venti); conditions: amount of applied herbicide 320 g/ha
Summary of the method: as §2

Chinese sprangletop = test: Test Example 3: herbicidal effect by foliage application, Wagner pot (Table 18, symbol D); format: in vivo, chinese sprangletop (Leptochloa chinensis); conditions: 320 g/ha
Summary of the method: as §4

green foxtail [15] = test: Test Example 4: herbicidal effect by soil treatment (Table 19, symbol G); format: in vivo, green foxtail (Setaria viridis); conditions: amount of applied herbicide 320 g/ha
Summary of the method: as §2

velvetleaf [16] = test: Test Example 4: herbicidal effect by soil treatment (Table 19, symbol M); format: in vivo, velvetleaf (Abutilon theophrasti); conditions: amount of applied herbicide 320 g/ha
Summary of the method: as §2

wild oat [17] = test: Test Example 4: herbicidal effect by soil treatment (Table 19, symbol I); format: in vivo, wild oat (Avena fatua); conditions: amount of applied herbicide 320 g/ha
Summary of the method: as §2

redroot pigweed [18] = test: Test Example 4: herbicidal effect by soil treatment (Table 19, symbol N); format: in vivo, redroot pigweed (Amaranthus retroflexus); conditions: amount of applied herbicide 320 g/ha
Summary of the method: as §2

barnyard grass [19] = test: Test Example 4: herbicidal effect by soil treatment (Table 19, symbol H); format: in vivo, barnyard grass (Echinochloa crus-galli); conditions: amount of applied herbicide 320 g/ha
Summary of the method: as §2

blackgrass [20] = test: Test Example 5: herbicidal effect by foliage application, plastic box (Table 20, symbol J); format: in vivo, blackgrass (Alopecurus myosuroides); conditions: amount of applied herbicide 320 g/ha; foliage application after 14-day growth; evaluated three weeks after application
Summary of the method: as §1

green foxtail [21] = test: Test Example 5: herbicidal effect by foliage application, plastic box (Table 20, symbol G); format: in vivo, green foxtail (Setaria viridis); conditions: amount of applied herbicide 320 g/ha; foliage application after 14-day growth; evaluated three weeks after application
Summary of the method: as §1

late watergrass = test: Test Example 1: herbicidal activity, application before weed generation under submerged conditions (Table 16, symbol A); format: in vivo, late watergrass (Echinochloa oryzicola); conditions: amount of applied herbicide 320 g/ha
Summary of the method: as §3

windgrass [22] = test: Test Example 5: herbicidal effect by foliage application, plastic box (Table 20, symbol L); format: in vivo, windgrass (Apera spica-venti); conditions: amount of applied herbicide 320 g/ha; foliage application after 14-day growth; evaluated three weeks after application
Summary of the method: as §1

false cleavers = test: Test Example 4: herbicidal effect by soil treatment (Table 19, symbol Q); format: in vivo, false cleavers (Galium spurium); conditions: amount of applied herbicide 320 g/ha
Summary of the method: as §2

southern crabgrass [23] = test: Test Example 5: herbicidal effect by foliage application, plastic box (Table 20, symbol F); format: in vivo, southern crabgrass (Digitaria ciliaris); conditions: amount of applied herbicide 320 g/ha; foliage application after 14-day growth; evaluated three weeks after application
Summary of the method: as §1

oval-leafed pondweed = test: Test Example 1: herbicidal activity, application before weed generation under submerged conditions (Table 16, symbol C); format: in vivo, oval-leafed pondweed (Monochoria vaginalis); conditions: amount of applied herbicide 320 g/ha
Summary of the method: as §3

chickweed [24] = test: Test Example 4: herbicidal effect by soil treatment (Table 19, symbol P); format: in vivo, common chickweed (Stellaria media); conditions: amount of applied herbicide 320 g/ha
Summary of the method: as §2

redroot pigweed [25] = test: Test Example 5: herbicidal effect by foliage application, plastic box (Table 20, symbol N); format: in vivo, redroot pigweed (Amaranthus retroflexus); conditions: amount of applied herbicide 320 g/ha; foliage application after 14-day growth; evaluated three weeks after application
Summary of the method: as §1

## CCCC(=O)Oc1c(C)nn(C)c(=O)c1-c1c(-c2ccc(F)cc2OC)sc2cc(F)c(F)cc12 [5-030]
Wild oat [1]
  Herbicidal effect by foliage application, I: wild oat: 0 (Herbicidal rate of 5% or less (almost no effect))
Lambsquarters [2]
  Herbicidal effect by foliage application, O: lambsquarters: 3 (Herbicidal rate of 40% or more and less than 70%)
Lambsquarters [3]
  O: lambsquarters, herbicidal effect grade: 5 (Herbicidal rate of 90% or more (almost completely withered))
Japanese bulrush
  Herbicidal effect, B: Japanese bulrush: 1 (Herbicidal rate of 5% or more and less than 20%)
Rice flat sedge
  herbicidal effect on rice flat sedge (E): 0 (Herbicidal rate of 5% or less (almost no effect))
Barnyard grass [4]
  Herbicidal effect by foliage application, H: barnyard grass: 2 (Herbicidal rate of 20% or more and less than 40%)
Persian speedwell [5]
  R: persian speedwell, herbicidal effect grade: 5 (Herbicidal rate of 90% or more (almost completely withered))
Italian ryegrass [6]
  K: Italian ryegrass, herbicidal effect grade: 0 (Herbicidal rate of 5% or less (almost no effect))
Southern crabgrass [7]
  F: southern crabgrass, herbicidal effect grade: 1 (Herbicidal rate of 5% or more and less than 20%)
Persian speedwell [8]
  Herbicidal effect by foliage application, R: persian speedwell: 0 (Herbicidal rate of 5% or less (almost no effect))
Barnyard grass [9]
  herbicidal effect on barnyard grass (H): 4 (Herbicidal rate of 70% or more and less than 90%)
Chickweed [10]
  Herbicidal effect by foliage application, P: chickweed: 5 (Herbicidal rate of 90% or more (almost completely withered))
Velvetleaf [11]
  Herbicidal effect by foliage application, M: velvetleaf: 3 (Herbicidal rate of 40% or more and less than 70%)
Italian ryegrass [12]
  Herbicidal effect by foliage application, K: Italian ryegrass: 0 (Herbicidal rate of 5% or less (almost no effect))
Blackgrass [13]
  J: blackgrass, herbicidal effect grade: 5 (Herbicidal rate of 90% or more (almost completely withered))
Windgrass [14]
  L: windgrass, herbicidal effect grade: 5 (Herbicidal rate of 90% or more (almost completely withered))
Chinese sprangletop
  herbicidal effect on Chinese sprangletop (D): 0 (Herbicidal rate of 5% or less (almost no effect))
Green foxtail [15]
  G: green foxtail, herbicidal effect grade: 4 (Herbicidal rate of 70% or more and less than 90%)
Velvetleaf [16]
  M: velvetleaf, herbicidal effect grade: 3 (Herbicidal rate of 40% or more and less than 70%)
Wild oat [17]
  I: wild oat, herbicidal effect grade: 0 (Herbicidal rate of 5% or less (almost no effect))
Redroot pigweed [18]
  N: redroot pigweed, herbicidal effect grade: 5 (Herbicidal rate of 90% or more (almost completely withered))
Barnyard grass [19]
  H: barnyard grass, herbicidal effect grade: 2 (Herbicidal rate of 20% or more and less than 40%)
Blackgrass [20]
  Herbicidal effect by foliage application, J: blackgrass: 4 (Herbicidal rate of 70% or more and less than 90%)
Green foxtail [21]
  Herbicidal effect by foliage application, G: green foxtail: 0 (Herbicidal rate of 5% or less (almost no effect))
Late watergrass
  Herbicidal effect, A: late watergrass: 3 (Herbicidal rate of 40% or more and less than 70%)
Windgrass [22]
  Herbicidal effect by foliage application, L: windgrass: 5 (Herbicidal rate of 90% or more (almost completely withered))
False cleavers
  Q: false cleavers, herbicidal effect grade: 0 (Herbicidal rate of 5% or less (almost no effect))
Southern crabgrass [23]
  Herbicidal effect by foliage application, F: southern crabgrass: 0 (Herbicidal rate of 5% or less (almost no effect))
oval-leafed pondweed
  Herbicidal effect, C: oval-leafed pondweed: 0 (Herbicidal rate of 5% or less (almost no effect))
Chickweed [24]
  P: chickweed, herbicidal effect grade: 5 (Herbicidal rate of 90% or more (almost completely withered))
Redroot pigweed [25]
  Herbicidal effect by foliage application, N: redroot pigweed: 3 (Herbicidal rate of 40% or more and less than 70%)

Source: patent US20230085307A1, “PYRIDAZINONE COMPOUND AND HERBICIDE” (NISSAN CHEMICAL CORPORATION, priority 2019, published 2023)
